Key:
ALDH = test: Cell based ALDH assay: competition against ALDEFLUOR in SK-BR-3 cells, FACS
Experimental: Briefly, the compound was dissolved in DMSO and competed against ALDEFLUOR™, a BODIPY-conjugated ALDH substrate, in a cell-based assay using SK-BR-3 cells. The BODIPY fluorescence in the cell samples were measured using FACS at 488 nm. The median fluorescence of each sample was measured and fitted to a sigmoidal dose-response curve for calculation of IC50 using Prism Graphpad.
6-(2-fluoroethyloxy)-2-naphthaldehyde was dissolved and diluted in DMSO prior to use.
SK-BR-3 cells, a cell line reported to have a high expression of ALDH+ cells, was used for all experiments. The cells were cultured in RPMI media supplemented with 10% fetal bovine serum and 2 mM L-glutamine, in 37° C., 5% CO2. On the day of assay, cells were harvested by trypsination, centrifuged, and re-suspended in ALDEFLUOR™ assay buffer to a concentration of 1×10^6 cells.
The compound was competed against ALDEFLUOR™, a BODIPY-conjugated ALDH substrate. […] Following incubation at 37° C., the fluorescence was measured in each sample by FACS at 488 nm. […]
The median fluorescence of each sample was calculated, and the values were then normalized and fitted to a dose-response curve for calculation of IC50 using Prism Graphpad.

[1] = target: T1, Aldehyde Dehydrogenase (Yeast ALDH) (Saccharomyces cerevisiae, UniProt P46367); test: ALDH assay by spectroscopic method (screening for ALDH activity); assay type: biochemical; conditions: substrate reagent 50 μM in 0.1M TrisHCl pH 8.0, change in absorbance or fluorescence as a function of time
T1 sequence (P46367 25-519): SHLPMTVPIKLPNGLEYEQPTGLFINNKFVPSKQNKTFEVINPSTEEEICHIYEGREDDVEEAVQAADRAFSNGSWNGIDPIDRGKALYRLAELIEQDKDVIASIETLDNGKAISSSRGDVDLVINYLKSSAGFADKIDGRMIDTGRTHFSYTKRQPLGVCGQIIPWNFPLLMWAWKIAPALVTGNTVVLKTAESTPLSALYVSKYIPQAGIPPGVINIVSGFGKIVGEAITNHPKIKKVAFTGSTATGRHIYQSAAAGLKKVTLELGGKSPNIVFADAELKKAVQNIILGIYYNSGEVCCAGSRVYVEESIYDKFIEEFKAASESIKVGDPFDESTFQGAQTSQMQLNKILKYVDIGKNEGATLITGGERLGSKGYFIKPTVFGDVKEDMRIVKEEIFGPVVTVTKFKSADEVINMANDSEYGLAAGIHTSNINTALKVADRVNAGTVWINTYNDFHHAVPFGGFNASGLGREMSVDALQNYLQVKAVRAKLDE
Description: Aldehyde Dehydrogenase is an enzyme that acts on aldehydes as substrates and converts them to acid (products).
Designing and Standardization of ALDH Assay: • following the conversion of NAD+ to NADH typically one does the ALDH assays.
[drawing 72] • The formation of NADH is monitored by measuring the absorbance at 340 nm. However, before employing this method, the compounds were screened for their spectral properties, especially to avoid any interference in absorbance either from the substrate or the product.
Such compounds were further screened for their fluorescence properties by recording their excitation/emission wavelengths.
ALDH Assay by Spectroscopic Method: • The ALDH assay is designed to measure either the utilization of the substrate or formation of product by measuring at their unique wavelengths (Absorbance or Fluorescence).
All the spectral studies for the compounds were carried out in 0.1M Tris HCl pH 8.0 buffer. CSCT Compounds were initially dissolved in Methanol (˜2.0 mg/mL). The compounds were further diluted in 0.1M Tris HCl pH 8.0 buffer (concentration ranging from ˜20 to 50 μg/mL). The Spectra was recorded using Spectramax M5.
The ALDH activity can be followed either by monitoring the conversion of β-NAD^+ to β-NADH or by directly monitoring the product/substrate. The conversion of β-NAD^+ to β-NADH yields increasing in absorbance at 340 nm. If either the substrate/products have any spectral interference at this wavelength then unique absorbance/fluorescence wavelength of either product/substrate are used. The measurements were taken on Spectromax M5.
• 1. Reagent 1: 1 M Tris HCl Buffer, pH 8.0 at 25° C. (Prepare 50 ml in deionized water using Trizma Base, Sigma Prod. No. T-1503. Adjust to pH 8.0 at 25° C. with 1 M HCl.) • 2. Reagent 2: 20 mM β-Nicotinamide Adenine Dinucleotide, Oxidized Form, Solution (β-NAD^+) (Prepare 1 ml in deionized water using β-Nicotinamide Adenine Dinucleotide, PREPARE FRESH). • 3. Reagent 3: 3 M Potassium Chloride Solution (KCl) (Prepare 1 ml in deionized water using Potassium Chloride). • 4. Reagent 4: 1 M 2-Mercaptoethanol Solution (2-ME) (Prepare 1 ml in deionized water using 2-Mercaptoethanol. PREPARE FRESH.) • 5. Reagent 5: 100 mM Tris HCl Buffer with 0.02% (w/v) Bovine Serum Albumin, pH 8.0 at 25° C. (for Enzyme Dilution). • 6. Reagent 6: Aldehyde Dehydrogenase Enzyme Solution (Yeast ALDH). Immediately before use, prepare a solution containing 0.5-1 unit/ml of Aldehyde Dehydrogenase in cold Reagent 5).
Pipette (in milliliters) the following reagents into vial:
In a 3.00 ml reaction mix, the final concentrations are 103 mM Tris HCl Buffer (Reagent 1), 0.67 mM β-nicotinamide adenine dinucleotide (Reagent 2), 100 mM potassium chloride (Reagent 3), 10 mM 2-mercaptoethanol (Reagent 4), 0.0007% (w/v) bovine serum albumin (Reagent 5) and 0.05-0.1 unit aldehyde dehydrogenase (Reagent 6).

Row | Compound | Displacement of ALDEFLUOR (decrease in fluorescence with increasing compound concentration) (ALDH; FACS at 488 nm) | IC50 (ALDH; competition against ALDEFLUOR, BODIPY fluorescence by FACS at 488 nm, compound 0.005-50 μM) | Comments (ALDH assay screening result) [1]
1 | O=Cc1ccc2cc(OCCF)ccc2c1 [Example 3A, 6-(2-fluoroethyloxy)-2-naphthaldehyde] | displaced ALDEFLUOR™ | 0.33 µM | Active
2 | COc1ccc2cc(C=O)ccc2c1 [6-Methoxy-2-Naphthaldehyde] |  |  | Active
3 | O=CCCNC(=O)c1ccc(F)cc1 [Example 2, (2-formylethyl)-4-fluorobenzamide] |  |  | Not active
4 | COc1cccc(C=O)c1 [3-anisladehyde] |  |  | Active
5 | O=Cc1ccc(I)cc1 [4-Iodobenzaldehyde] |  |  | Active
6 | O=Cc1ccc2cc(OCCCF)ccc2c1 [Example 3, 6-(3-fluororpropyloxy)-2-naphthaldehyde] |  |  | Active
7 | O=Cc1ccc2ccccc2c1 [2-Naphthaldehyde] |  |  | Active
8 | O=Cc1ccc(F)cc1 [4-fluorobenzaldehyde] |  |  | Active

Reference: US20130101509A1, “IMAGING AND RADIOTHERAPY METHODS” (GENERAL ELECTRIC COMPANY, priority 2008, published 2013)
